Read-outs that look alike come from different tables or passages of the source. Each block holds one compound with its values, some of them ahead of it.
Tests used:
MCR-4 = target: T1, MCR-4 (Homo sapiens, UniProt P32245); assay: Melanocortin receptor binding assay, competition with 125I-HP 467, HEK 293 cells expressing hMCR-4; conditions: for IC50: read-out: MC-4 IC50
T1 construct: expressed in transfected cells; host or cells: HEK 293
Experimental: All cell culture media and reagents were obtained from GibcoBRL (Gaithersburg Md.), except for COSMIC CALF SERUM (HyClone; Logan Utah).
Cells were suspended in PBS, 10% COSMIC CALF SERUM and 1 mM CaCl2. Cell suspensions were prepared at a density of 2×10^4 cells/ml for HEK 293 cells expressing hMCR-3, hMCR-4 or hMCR-5, and 1×10^5 cells/ml for HEK 293 cells expressing hMCR-1. Suspensions were placed in a water bath and allowed to warm to 37° C. for 1 hr.
Binding assays were performed in a total volume of 250 μl for HEK 293 cells. […] To each tube was added 4×10^3 HEK 293 cells expressing hMCR-3, hMCR-4 or hMCR-5, or 2×10^4 cells expressing hMCR-1. Assays were incubated for 2.5 hr at 37° C.
GF/B filter plates were prepared by soaking for at least one hour in 5 mg/ml BSA and 10 mM CaCl2. Assays were filtered using a Brandel 96-well cell harvester (Brandel Inc.; Gaithersburg, Md.). The filters were washed four times with cold 50 mM Tris, pH 7.4, the filter plates were dehydrated for 2 hr and 35 μl of MICROSCINT was added to each well. Filter plates were counted using a Packard Topcount (Packard Instrument Co.) and data analyzed using GraphPad PRISM v2.0 (GraphPad Software Inc.; San Diego Calif.) and Microsoft EXCEL v5.0a (Microsoft Corp.; Redmond Wash.).
To assay isoquinoline compounds, binding assays were performed in duplicate in a 96 well format. […] A 0.2 ml aliquot of suspended cells was added to each well to give the cell numbers indicate above, and the cells were incubated at 37° C. for 2.5 hr. Cells were harvested on GF/B filter plates as described above and counted.

MCR-1 = target: T2, MCR-1 (Homo sapiens, UniProt Q01726); assay: Melanocortin receptor binding assay, competition with 125I-HP 467, HEK 293 cells expressing hMCR-1; conditions: for IC50: read-out: MC-1 IC50
T2 construct: expressed in transfected cells; host or cells: HEK 293
T2 sequence (Q01726 whole entry): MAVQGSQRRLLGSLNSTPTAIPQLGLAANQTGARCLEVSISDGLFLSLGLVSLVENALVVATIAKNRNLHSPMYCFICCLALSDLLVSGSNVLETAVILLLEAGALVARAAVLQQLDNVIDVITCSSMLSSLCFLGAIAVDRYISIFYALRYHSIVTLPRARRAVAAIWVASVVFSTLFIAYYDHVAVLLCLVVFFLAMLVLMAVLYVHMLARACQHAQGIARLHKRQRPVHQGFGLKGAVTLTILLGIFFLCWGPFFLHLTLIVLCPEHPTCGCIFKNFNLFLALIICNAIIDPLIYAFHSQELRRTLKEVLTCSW
How it was run: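 Test compounds compete on intact HEK 293 cells carrying hMCR-1 (2×10^4 per tube) or hMCR-4 (4×10^3 per tube), suspended in PBS, 10% calf serum, 1 mM CaCl2.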

[1] = inhibition of binding of 125I-HP 467, HEK 293 cells expressing MCR-4
[2] = inhibition of binding of 125I-HP 467, HEK 293 cells expressing MCR-1
[3] = TRG 2408 and TRG 2409 libraries, inhibition of 125I-HP 467 binding
[4] = inhibition of binding of 125I-HP 467, HEK 293 cells expressing MCR-4, TRG 2414 library
[5] = inhibition of binding of 125I-HP 467, HEK 293 cells expressing MCR-1, TRG 2414 library
[6] = TRG 2406 and TRG 2407 libraries, inhibition of binding of 125I-HP 467

T1 sequence (P32245 whole entry): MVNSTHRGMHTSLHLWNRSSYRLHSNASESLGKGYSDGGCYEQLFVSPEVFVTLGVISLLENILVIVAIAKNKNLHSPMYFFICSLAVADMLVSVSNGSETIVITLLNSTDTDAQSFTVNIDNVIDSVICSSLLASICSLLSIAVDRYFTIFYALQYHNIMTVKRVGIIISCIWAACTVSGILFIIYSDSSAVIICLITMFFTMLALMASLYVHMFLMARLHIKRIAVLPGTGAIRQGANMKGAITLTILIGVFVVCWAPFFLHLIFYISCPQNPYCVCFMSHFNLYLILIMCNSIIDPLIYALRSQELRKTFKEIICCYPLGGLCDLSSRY

IC50 (MCR-4; [1]): 7.95 µM
IC50 (MCR-1; [2]): 0.306 µM
SMILES: CCCCOc1ccc(C2C(CN)c3ccccc3CN2CCCCC(CN)NCC)cc1 (mixture of isomers) [TRG 2415-18]

IC50 (MCR-4; [3]): 1.88 µM
IC50 (MCR-1; [3]): 7.05 µM
SMILES: NCC(CCN1Cc2ccccc2C(CNC2CCCCC2)C1c1ccc(Cl)cc1Cl)NCCc1ccccc1 (mixture of isomers) [TRG 2408-102]

IC50 (MCR-4; [3]): 9.01 µM
IC50 (MCR-1; [3]): 5.37 µM
SMILES: CNC(CN)CCN1Cc2ccccc2C(CNC2CCCCC2)C1c1ccc(-c2ccccc2)cc1 (stereo not shown) [TRG 2408-110]

IC50 (MCR-4; [4]): 30.2 µM
IC50 (MCR-1; [5]): 32.8 µM
SMILES: NCC(CCCCN1Cc2ccccc2C(CNCc2ccccc2C(F)(F)F)C1c1cc(C(F)(F)F)cc(C(F)(F)F)c1)NCCc1ccccc1 (stereo not shown) [TRG 2414-42]

IC50 (MCR-4; [1]): 5.18 µM
IC50 (MCR-1; [2]): 0.22 µM
SMILES: CCNc1ccc(C2C(CN)c3ccccc3CN2CCCC[C@@H](CN)NCCCCOc2ccccc2)cc1 (stereo partly shown) [2424#8]

IC50 (MCR-4; [4]): 13.8 µM
SMILES: CCOc1ccccc1CNCC1c2ccccc2CN(CCCCC(CN)NCC(C)c2ccc(CC(C)C)cc2)C1c1ccc(Cl)cc1Cl (stereo not shown) [TRG 2414-8]

IC50 (MCR-4; [4]): 2.5 µM
IC50 (MCR-1; [5]): 4.51 µM
SMILES: COc1cccc(CNCC2c3ccccc3CN(CCCCC(N)CN)C2c2cccc(Oc3ccccc3)c2)c1 (mixture of isomers) [TRG 2414-97]

IC50 (MCR-4; competition with 125I-HP 467, HEK 293 cells expressing MCR-4): 1.06 µM
IC50 (MCR-1; competition with 125I-HP 467, HEK 293 cells expressing MCR-1): 0.57 µM
SMILES: CCCCNc1ccc(C2C(CNCCc3ccccc3)c3ccccc3CN2CCCCC(CN)NCCc2ccc3ccccc3c2)cc1 (stereo not shown) [TRG 2411-83]

MC-4 IC50 (MCR-4; [4]): no fit
IC50 (MCR-1; [5]): 36.5 µM
SMILES: CCOc1ccccc1CNCC1c2ccccc2CN(CCCCC(CN)NCC(C)c2ccc(CC(C)C)cc2)C1c1cccc(Oc2ccccc2)c1 (stereo not shown) [TRG 2414-88]

SMILES: COc1ccc(CNC(CN)CCCCN2Cc3ccccc3C(CNCCc3ccc(OC)c(OC)c3)C2c2cc(C(F)(F)F)cc(C(F)(F)F)c2)cc1 (stereo not shown) [TRG 2421-19]
IC50 (MCR-4; [1]): 0.52 µM
IC50 (MCR-1; [2]): 1.63 µM

IC50 (MCR-4; [4]): 0.64 µM
IC50 (MCR-1; [5]): 9.45 µM
SMILES: NCC(N)CCCCN1Cc2ccccc2C(CNCc2ccccc2)C1c1cc(C(F)(F)F)cc(C(F)(F)F)c1 (stereo not shown) [TRG 2414-69]

SMILES: Cc1ccc(CNC(CN)CCCCN2Cc3ccccc3C(CNCCc3ccccc3)C2c2cc(C(F)(F)F)cc(C(F)(F)F)c2)cc1 (mixture of isomers) [TRG 2421-2]
IC50 (MCR-4; [1]): 3.03 µM
IC50 (MCR-1; [2]): 3.73 µM

IC50 (MCR-4; [1]): 1.44 µM
IC50 (MCR-1; [2]): 0.16 µM
SMILES: CCCCNc1ccc(C2C(CNCCc3ccccc3)c3ccccc3CN2CCCC(CN)NCCc2ccc(OC)cc2)cc1 (stereo not shown) [TRG 2411-195]

IC50 (MCR-4; [6]): 0.62 µM
IC50 (MCR-1; [6]): 1.47 µM
SMILES: CNC(CN)CCCCN1Cc2ccccc2C(CNCCc2ccc(OC)cc2)C1c1ccc(Cl)cc1Cl (stereo not shown) [TRG 2407-25]

SMILES: CNC(CN)CCCCN1Cc2ccccc2C(CNC2CCCCC2)C1c1ccc(-c2ccccc2)cc1 (stereo not shown) [TRG 2408-50]
IC50 (MCR-4; [3]): 13.3 µM
IC50 (MCR-1; [3]): 1.55 µM

SMILES: NCC(CCCCN1Cc2ccccc2C(CNCCc2ccc(Cl)cc2)C1c1cc(C(F)(F)F)cc(C(F)(F)F)c1)NCc1ccccc1 (stereo not shown) [TRG 2421-31]
IC50 (MCR-4; [1]): 2.77 µM
IC50 (MCR-1; [2]): 5.9 µM

IC50 (MCR-4; [6]): 10.7 µM
IC50 (MCR-1; [6]): 5.57 µM
SMILES: CNC(CN)CCCCN1Cc2ccccc2C(CNc2ccccc2)C1c1ccc(Cl)cc1Cl (mixture of isomers) [TRG 2407-1]

MC-4 IC50 (MCR-4; [4]): no fit
IC50 (MCR-1; [5]): 37 µM
SMILES: COc1cccc(CNCC2c3ccccc3CN(CCCCC(CN)NCC(C)c3ccc(CC(C)C)cc3)C2c2ccc(Oc3ccccc3)cc2)c1 (stereo not shown) [TRG 2414-140]

IC50 (MCR-4; [4]): 49.2 µM
MC-1 IC50 (MCR-1; [5]): no fit
SMILES: COc1ccc(CCNCC2c3ccccc3CN(CCCCC(CN)NCC(C)c3ccc(CC(C)C)cc3)C2c2cccc(Oc3ccccc3)c2)cc1 (stereo not shown) [TRG 2414-108]

IC50 (MCR-4; [4]): 0.64 µM
IC50 (MCR-1; [5]): 9.78 µM
SMILES: NCC(N)CCCCN1Cc2ccccc2C(CNCCc2cccc(Cl)c2)C1c1cc(C(F)(F)F)cc(C(F)(F)F)c1 (stereo not shown) [TRG 2414-53]

SMILES: CCNc1ccc(C2C(CNCCc3ccccc3)c3ccccc3CN2CCCC(CN)NCCCCCNCc2ccccc2)cc1 (stereo not shown) [TRG 2420-2]
IC50 (MCR-4; [1]): 4.05 µM
IC50 (MCR-1; [2]): 0.076 µM

IC50 (MCR-4; TRG 2414 library, inhibition of binding of 125I-HP 467, HEK 293 cells expressing MCR-4): 4.26 µM
IC50 (MCR-1; TRG 2414 library, inhibition of binding of 125I-HP 467, HEK 293 cells expressing MCR-1): 0.542 µM
SMILES: CCCOc1ccc(C2C(CNCCc3ccc(OC)cc3)c3ccccc3CN2CCCCC(N)CN)cc1 (stereo not shown) [Cmpd 185]

Reference: US6608082B1, “Treatment of erectile dysfunction using isoquinoline compound melanocortin receptor ligands” (Lion Bioscience AG, priority 1998, dated 2003)
